PubChem BioAssay AID248 (DTP/NCI, 2004)
Several values for one entry are separate records, joined by “and”; a condition that tells them apart may be missing. Equal entries are not always repeated. Inconclusive results and toxic doses are left out.

Tested on: L1210 leukemia ip in BDF1 mice, survival T/C
Assay: NCI In Vivo Anticancer Drug Screen. Data for tumor model L1210 Leukemia (intraperitoneal) in B6D2F1 (BDF1) mice
Conditions: endpoint: mean survival time, higher = longer survival
Summary of the method: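 Tumor was transplanted into mice, which were then dosed with test compound or vehicle alone. Survival was recorded for each group, and the treated figure was expressed relative to the control figure.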

[1] = dose: 100.0 mg/kg/injection, schedule: Q04DX002 (ip), vehicle: Klucel (hydroxypropylcellulose) (HPC)
[2] = dose: 200.0 mg/kg/injection, schedule: Q04DX002 (ip), vehicle: Klucel (hydroxypropylcellulose) (HPC)
[3] = dose: 400.0 mg/kg/injection, schedule: Q04DX002 (ip), vehicle: Klucel (hydroxypropylcellulose) (HPC)
[4] = dose: 50.0 mg/kg/injection, schedule: Q01DX001 (ip), vehicle: saline

## O=C(O)CCCCCNC(=O)C(F)(F)F
dose: 100.0 mg/kg/injection, schedule: Q04DX003 (ip), vehicle: other
  T/C: 94 % of control
dose: 200.0 mg/kg/injection, schedule: Q04DX003 (ip), vehicle: other
  T/C: 103 % of control
dose: 400.0 mg/kg/injection, schedule: Q04DX003 (ip), vehicle: other
  T/C: 87 % of control

## CC(C)(C)OC(=O)NC(Cc1ccccc1)C(=O)NN (configuration not stated)
[1]
  T/C: 108 % of control
[2]
  T/C: 97 % of control
[3]
  T/C: 108 % of control

## O=C(Nc1ccc(F)cc1)c1ccc([N+](=O)[O-])cc1
[1]
  T/C: 95 % of control
[2]
  T/C: 95 % of control
[3]
  T/C: 92 % of control

## COc1ccc(NC(=O)CCN2CC2)cc1
dose: 12.5 mg/kg/injection, schedule: Q01DX001 (ip), vehicle: saline
  T/C: 105 % of control
dose: 25.0 mg/kg/injection, schedule: Q01DX001 (ip), vehicle: saline
  T/C: 97 % of control
dose: 25.0 mg/kg/injection, schedule: Q01DX009 (ip), vehicle: saline with Tween-80
  T/C: 103 % of control
[4]
  T/C: 103 % of control
dose: 50.0 mg/kg/injection, schedule: Q01DX009 (ip), vehicle: saline with Tween-80
  T/C: 95 % of control
dose: 100.0 mg/kg/injection, schedule: Q01DX001 (ip), vehicle: alcohol
  T/C: 93 % of control
dose: 100.0 mg/kg/injection, schedule: Q01DX009 (ip), vehicle: saline with Tween-80
  T/C: 91 % of control
dose: 200.0 mg/kg/injection, schedule: Q01DX001 (ip), vehicle: alcohol
  T/C: 86 % of control

## CC[n+]1cccc(-c2ccc(NC(=O)/C=C/c3ccc(C(=O)Nc4ccc(-c5ccc[n+](CC)c5)cc4)cc3)cc2)c1
dose: 7.1 mg/kg/injection, schedule: Q01DX001 (ip), vehicle: carboxymethylcellulose (CMC)
  T/C: 118 % of control
dose: 12.5 mg/kg/injection, schedule: Q01DX Z (ip), vehicle: carboxymethylcellulose (CMC)
  T/C: 241 % of control
dose: 25.0 mg/kg/injection, schedule: Q01DX001 (ip), vehicle: carboxymethylcellulose (CMC)
  T/C: 152 % of control and 157 % of control
dose: 25.0 mg/kg/injection, schedule: Q01DX Z (ip), vehicle: carboxymethylcellulose (CMC)
  T/C: 211 % of control
dose: 50.0 mg/kg/injection, schedule: Q01DX001 (ip), vehicle: carboxymethylcellulose (CMC)
  T/C: 202 % of control
dose: 50.0 mg/kg/injection, schedule: Q01DX Z (ip), vehicle: carboxymethylcellulose (CMC)
  T/C: 164 % of control
dose: 100.0 mg/kg/injection, schedule: Q01DX001 (ip), vehicle: carboxymethylcellulose (CMC)
  T/C: 238 % of control
dose: 200.0 mg/kg/injection, schedule: Q01DX001 (ip), vehicle: carboxymethylcellulose (CMC)
  T/C: 263 % of control
dose: 300.0 mg/kg/injection, schedule: Q01DX001 (ip), vehicle: carboxymethylcellulose (CMC)
  T/C: 120 % of control
dose: 450.0 mg/kg/injection, schedule: Q01DX001 (ip), vehicle: carboxymethylcellulose (CMC)
  T/C: 124 % of control
dose: 675.0 mg/kg/injection, schedule: Q01DX001 (ip), vehicle: carboxymethylcellulose (CMC)
  T/C: 107 % of control

## O=C(O)c1cnc(Cl)nc1Nc1ccccc1I
dose: 6.25 mg/kg/injection, schedule: Q01DX009 (ip), vehicle: saline with Tween-80
  T/C: 93 % of control
dose: 12.5 mg/kg/injection, schedule: Q01DX001 (ip), vehicle: saline with Tween-80
  T/C: 90 % of control
dose: 12.5 mg/kg/injection, schedule: Q01DX009 (ip), vehicle: saline with Tween-80
  T/C: 88 % of control
dose: 25.0 mg/kg/injection, schedule: Q01DX001 (ip), vehicle: saline with Tween-80
  T/C: 90 % of control

## CCOC(=O)c1ccc(C)cc1Nc1ccccc1C(F)(F)F
dose: 100.0 mg/kg/injection, schedule: Q04DX003 (ip), vehicle: Klucel (hydroxypropylcellulose) (HPC)
  T/C: 90 % of control
dose: 200.0 mg/kg/injection, schedule: Q04DX003 (ip), vehicle: Klucel (hydroxypropylcellulose) (HPC)
  T/C: 94 % of control
dose: 400.0 mg/kg/injection, schedule: Q04DX003 (ip), vehicle: Klucel (hydroxypropylcellulose) (HPC)
  T/C: 95 % of control

## COc1ccccc1CN1CCCN(Cc2ccccc2OC)C1c1ccccc1
[4]
  T/C: 101 % of control
dose: 100.0 mg/kg/injection, schedule: Q01DX001 (ip), vehicle: saline
  T/C: 109 % of control
dose: 200.0 mg/kg/injection, schedule: Q01DX001 (ip), vehicle: saline
  T/C: 90 % of control
dose: 400.0 mg/kg/injection, schedule: Q01DX001 (ip), vehicle: saline
  T/C: 90 % of control

## COC1OCC(Cl)C(O)C1OS(C)(=O)=O (configuration not stated)
dose: 100.0 mg/kg/injection, schedule: Q04DX002 (ip), vehicle: saline with Tween-80
  T/C: 96 % of control
dose: 200.0 mg/kg/injection, schedule: Q04DX002 (ip), vehicle: saline with Tween-80
  T/C: 100 % of control
dose: 400.0 mg/kg/injection, schedule: Q04DX002 (ip), vehicle: saline with Tween-80
  T/C: 104 % of control
